Laboratory results published in patent US10813868B2, “Method of improving hair volume” (priority 2014, dated 2020).

Legend:
[1] = Hair switch volume test (switches dosed, combed straight, dried overnight, image projection measured); conditions: for % benefit: 2% solution; for Volume: same batch of switches, 0.2 ml of 2% solution; for Volume / volume (projection of the switch image on to the screen): combed straight, dried overnight; for volume (projection of the switch image on to the screen): 0.2 ml of 2% solution per 2 g switch
Procedure: Dark brown European wavy #6 switches (from 2 different batches) of length 25 cm and weight 2 g were dosed with 0.2 ml each of 2% glucosamine.HCl salt solution. Control switches were wetted with water. All switches were combed straight and left to dry overnight. When dry the switches were combed straight and pictures taken. […] (Here volume refers to the projection of the switch image on to the screen and is given in mm^2).
Dark brown European wavy #6 switches of length 25 cm and weight 2 gms (from the same batch of switches), were dosed with 0.2 ml each of 2% solutions of various mono and diglucosamine salts. Control switches were treated with water.
All switches were combed straight and left to dry overnight.
When dry the switches were combed straight and pictures taken. […] (Here volume refers to the projection of the switch image on to the screen and is given in mm^2). The percentage benefit (i.e. increase in volume) with respect to control (water) is also given.

[2] = Half head test on a mannequin head, styled with a blow dryer; conditions: 2% solution on left half vs water on right half; picture the day following styling
Procedure: FIG. 1 is an image of a mannequin head taken the day following a test performed with one half (right hand side) treated with water and the other half (left hand side) treated with 2% glucosamine.HCI salt solution and followed by styling with a blow dryer. A half head test on a mannequin head was performed with one half (right hand side) treated with water and the other half (left hand side) treated with 2% glucosamine.HCl salt solution. The head was styled with a blow dryer for volume up benefit. FIG. 1 is a picture taken the day following the styling.

[3] = Example 2, increase in volume with respect to control (water)

Row | Molecule | % benefit [1, 3] [%] | Volume ([1]; Example 2) [mm^2] | further results
1 | glucosamine nicotinate | 41.6 | 20087 | –
2 | glucosamine glutamate | 30.9 | 18563 | –
3 | diglucosamine succinate | 20.8 | 17136 | –
4 | diglucosamine malonate | 34.3 | 19053 | –
5 | glucosamine pimelate | 13.4 | 16088 | –
6 | diglucosamine adipate | 28.3 | 18189 | –
7 | CC(O)C(=O)O.N[C@H]1C(O)O[C@H](CO)[C@@H](O)[C@@H]1O (some centres unmarked) [glucosamine lactate] | 33.6 | 18944 | –
8 | diglucosamine maleate | 34.3 | 19053 | –
9 | N[C@H]1C(O)O[C@H](CO)[C@@H](O)[C@@H]1O.O=C(O)CCC(=O)O (some centres unmarked) [glucosamine succinate] | 13.5 | 16102 | –
10 | Cl.N[C@H]1C(O)O[C@H](CO)[C@@H](O)[C@@H]1O (some centres unmarked) [glucosamine•HCl, glucosamine hydrochloride] | – | – | volume (projection of the switch image on to the screen) ([1]; Batch 1 switches): 14236 mm^2; % benefit ([1]; Batch 1 switches, increase in volume vs water control): 6.7%; volume (projection of the switch image on to the screen) ([1]; Batch 2 switches): 16851 mm^2; % benefit ([1]; Batch 2 switches, increase in volume vs water control): 7.3%; volumising benefit (visual comparison) [2]: clearly evident
11 | N[C@H]1C(O)O[C@H](CO)[C@@H](O)[C@@H]1O.O=C(O)/C=C\C(=O)O (some centres unmarked) [glucosamine maleate] | 30.1 | 18450 | –
12 | N[C@H]1C(O)O[C@H](CO)[C@@H](O)[C@@H]1O.O=C(O)/C=C/C(=O)O (some centres unmarked) [glucosamine fumarate] | 18.5 | 16802 | –
13 | diglucosamine glutamate | 38.0 | 19575 | –
14 | glucosamine glutarate | 9.1 | 15475 | –
15 | diglucosamine glutarate | 35.6 | 19234 | –
16 | diglucosamine pimelate | 27.1 | 18021 | –
17 | diglucosamine aspartate | 39.5 | 19780 | –
18 | NCC(=O)O.N[C@H]1C(O)O[C@H](CO)[C@@H](O)[C@@H]1O (some centres unmarked) [glucosamine glycinate] | 39.2 | 19748 | –
19 | glucosamine 2-pyrrolidone-5-carboxylate [glucosamine PCA] | 37.5 | 19505 | –
20 | diglucosamine fumarate | 38.0 | 19575 | –
21 | N[C@H]1C(O)O[C@H](CO)[C@@H](O)[C@@H]1O.O=C(O)CC(=O)O (some centres unmarked) [glucosamine malonate] | 21.6 | 17244 | –
22 | glucosamine aspartate | 30.9 | 18566 | –
